# Assay results published in ChEMBL document CHEMBL1201862, “PubChem BioAssay data set” (2004).
#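 Step 1: Grow cells in 96-well plates. Step 2: Expose to compound for 48 hours at 5 concentrations. Step 3: Interpolate endpoints linearly; if unreached, use highest concentration. The concentration for 50% growth inhibition is given as GI50.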 Activity calls are given as the source filed them. No stated cut-off is given here; in the data, active = GI50 up to about 1.1 µM and inactive = higher.
# Key:
# Assay in all cases: DTP human tumour cell line panel, 48 h
# MDA-MB-435 = tested on: MDA-MB-435
# CAKI-1 = tested on: CAKI-1
# HCT-116 = tested on: HCT-116
# OVCAR-4 = tested on: OVCAR-4
# MDA-MB-231 = tested on: MDA-MB-231
# HCC 2998 = tested on: HCC 2998
# NCI-H23 = tested on: NCI-H23
# SW-620 = tested on: SW-620
# T47D = tested on: T47D
# LOX IMVI = tested on: LOX IMVI
# IGROV-1 = tested on: IGROV-1
# 786-0 = tested on: 786-0
# OVCAR-8 = tested on: OVCAR-8
# NCI/ADR-RES = tested on: NCI/ADR-RES
# SF-539 = tested on: SF-539
# SNB-75 = tested on: SNB-75
# HCT-15 = tested on: HCT-15
# TK-10 = tested on: TK-10
# RXF 393 = tested on: RXF 393
# PC-3 = tested on: PC-3
# ACHN = tested on: ACHN
# SF-268 = tested on: SF-268
# SR = tested on: SR
# DU-145 = tested on: DU-145
# SNB-19 = tested on: SNB-19
# OVCAR-3 = tested on: OVCAR-3
# MDA-N = tested on: MDA-N
# MOLT-4 = tested on: MOLT-4
# Hs-578T = tested on: Hs-578T
# NCI-H226 = tested on: NCI-H226
# KM12 = tested on: KM12
# Malme-3M = tested on: Malme-3M
# A549 = tested on: A549
# SN12C = tested on: SN12C
# M14 = tested on: M14
# UACC-257 = tested on: UACC-257
# SK-MEL-2 = tested on: SK-MEL-2
# COLO 205 = tested on: COLO 205
# RPMI-8226 = tested on: RPMI-8226
# SK-OV-3 = tested on: SK-OV-3
# U-251 = tested on: U-251
# SF-295 = tested on: SF-295
# OVCAR-5 = tested on: OVCAR-5
# HOP-92 = tested on: HOP-92
# HT-29 = tested on: HT-29
# SK-MEL-28 = tested on: SK-MEL-28
# UACC-62 = tested on: UACC-62
# MCF7 = tested on: MCF7
# UO-31 = tested on: UO-31
# HOP-62 = tested on: HOP-62
# K562 = tested on: K562
# CCRF-CEM = tested on: CCRF-CEM
# BT-549 = tested on: BT-549
# EKVX = tested on: EKVX
# HL-60 = tested on: HL-60
# NCI-H460 = tested on: NCI-H460
# SK-MEL-5 = tested on: SK-MEL-5
# NCI-H522 = tested on: NCI-H522
# A498 = tested on: A498
smiles,measurement,setting,value
c1ccc(C2SCc3nc4cc5ccccc5cc4n32)cc1 (stereo unspecified),GI50,MDA-MB-435,> 100 µM (inactive)
same,GI50,CAKI-1,> 100 µM (inactive)
same,GI50,HCT-116,> 100 µM (inactive)
same,GI50,OVCAR-4,89.3 µM (inactive)
same,GI50,MDA-MB-231,> 100 µM (inactive)
same,GI50,HCC 2998,> 100 µM (inactive)
same,GI50,NCI-H23,> 100 µM (inactive)
same,GI50,SW-620,> 100 µM (inactive)
same,GI50,T47D,> 100 µM (inactive)
same,GI50,LOX IMVI,> 100 µM (inactive)
same,GI50,IGROV-1,> 100 µM (inactive)
same,GI50,786-0,60.4 µM (inactive)
same,GI50,OVCAR-8,> 100 µM (inactive)
same,GI50,NCI/ADR-RES,> 100 µM (inactive)
same,GI50,SF-539,> 100 µM (inactive)
same,GI50,SNB-75,70.1 µM (inactive)
same,GI50,HCT-15,> 100 µM
same,GI50,TK-10,> 100 µM (inactive)
same,GI50,RXF 393,> 100 µM (inactive)
same,GI50,PC-3,> 100 µM (inactive)
same,GI50,ACHN,> 100 µM (inactive)
same,GI50,SF-268,> 100 µM (inactive)
same,GI50,SR,> 100 µM (inactive)
same,GI50,DU-145,> 100 µM (inactive)
same,GI50,SNB-19,> 100 µM (inactive)
same,GI50,OVCAR-3,> 100 µM (inactive)
same,GI50,MDA-N,> 100 µM (inactive)
same,GI50,MOLT-4,> 100 µM (inactive)
same,GI50,Hs-578T,60.3 µM (inactive)
same,GI50,NCI-H226,> 100 µM (inactive)
same,GI50,KM12,> 100 µM (inactive)
same,GI50,Malme-3M,> 100 µM (inactive)
same,GI50,A549,> 100 µM (inactive)
same,GI50,SN12C,> 100 µM (inactive)
same,GI50,M14,> 100 µM (inactive)
same,GI50,UACC-257,> 100 µM (inactive)
same,GI50,SK-MEL-2,> 100 µM (inactive)
same,GI50,COLO 205,> 100 µM (inactive)
same,GI50,RPMI-8226,> 100 µM (inactive)
same,GI50,SK-OV-3,> 100 µM (inactive)
same,GI50,U-251,> 100 µM (inactive)
same,GI50,SF-295,85.5 µM (inactive)
same,GI50,OVCAR-5,> 100 µM (inactive)
same,GI50,HOP-92,57.3 µM (inactive)
same,GI50,HT-29,> 100 µM (inactive)
same,GI50,SK-MEL-28,> 100 µM (inactive)
same,GI50,UACC-62,> 100 µM (inactive)
same,GI50,MCF7,> 100 µM (inactive)
same,GI50,UO-31,> 100 µM (inactive)
same,GI50,HOP-62,> 100 µM (inactive)
same,GI50,K562,> 100 µM (inactive)
same,GI50,CCRF-CEM,> 100 µM (inactive)
same,GI50,BT-549,> 100 µM (inactive)
same,GI50,EKVX,> 100 µM (inactive)
CC(=O)N1C(Nc2cnc3ccccc3c2)CCN1c1ccccc1 (stereo unspecified),GI50,MDA-MB-435,> 10 µM (inactive)
same,GI50,CAKI-1,> 10 µM (inactive)
same,GI50,HCT-116,> 10 µM (inactive)
same,GI50,OVCAR-4,> 10 µM (inactive)
same,GI50,MDA-MB-231,> 10 µM (inactive)
same,GI50,HL-60,6.37 µM (inactive)
same,GI50,HCC 2998,> 10 µM (inactive)
same,GI50,NCI-H23,> 10 µM (inactive)
same,GI50,SW-620,4.78 µM (inactive)
same,GI50,T47D,> 10 µM (inactive)
same,GI50,LOX IMVI,5.65 µM (inactive)
same,GI50,NCI-H460,> 10 µM (inactive)
same,GI50,IGROV-1,> 10 µM (inactive)
same,GI50,786-0,> 10 µM (inactive)
same,GI50,OVCAR-8,> 10 µM (inactive)
same,GI50,SK-MEL-5,> 10 µM (inactive)
same,GI50,NCI/ADR-RES,> 10 µM (inactive)
same,GI50,SF-539,> 10 µM (inactive)
same,GI50,SNB-75,> 10 µM (inactive)
same,GI50,HCT-15,> 10 µM
same,GI50,TK-10,> 10 µM (inactive)
same,GI50,RXF 393,> 10 µM (inactive)
same,GI50,PC-3,> 10 µM (inactive)
same,GI50,ACHN,9.57 µM (inactive)
same,GI50,SF-268,> 10 µM (inactive)
same,GI50,SR,> 10 µM (inactive)
same,GI50,DU-145,> 10 µM (inactive)
same,GI50,SNB-19,> 10 µM (inactive)
same,GI50,OVCAR-3,> 10 µM (inactive)
same,GI50,MDA-N,> 10 µM (inactive)
same,GI50,MOLT-4,> 10 µM (inactive)
same,GI50,Hs-578T,> 10 µM (inactive)
same,GI50,NCI-H226,> 10 µM (inactive)
same,GI50,Malme-3M,> 10 µM (inactive)
same,GI50,A549,> 10 µM (inactive)
same,GI50,SN12C,> 10 µM (inactive)
same,GI50,M14,> 10 µM (inactive)
same,GI50,UACC-257,> 10 µM (inactive)
same,GI50,SK-MEL-2,> 10 µM (inactive)
same,GI50,COLO 205,> 10 µM (inactive)
same,GI50,RPMI-8226,> 10 µM (inactive)
same,GI50,SK-OV-3,> 10 µM (inactive)
same,GI50,SF-295,> 10 µM (inactive)
same,GI50,OVCAR-5,> 10 µM (inactive)
same,GI50,HT-29,> 10 µM (inactive)
same,GI50,SK-MEL-28,> 10 µM (inactive)
same,GI50,MCF7,> 10 µM (inactive)
same,GI50,UO-31,> 10 µM (inactive)
same,GI50,NCI-H522,> 10 µM (inactive)
same,GI50,HOP-62,> 10 µM (inactive)
same,GI50,K562,6.58 µM (inactive)
same,GI50,CCRF-CEM,> 10 µM (inactive)
same,GI50,BT-549,> 10 µM (inactive)
same,GI50,EKVX,> 10 µM (inactive)
O=C(O)CC1OCC=C2CN3CCC45C6=CC(=O)C(O)=C([N+](=O)[O-])C6=NC4C1C2CC35 (stereo unspecified),GI50,MDA-MB-435,17.2 µM (inactive)
same,GI50,CAKI-1,> 100 µM (inactive)
same,GI50,HCT-116,> 100 µM (inactive)
same,GI50,OVCAR-4,> 100 µM (inactive)
same,GI50,MDA-MB-231,> 100 µM (inactive)
same,GI50,HL-60,52 µM (inactive)
same,GI50,HCC 2998,> 100 µM (inactive)
same,GI50,NCI-H23,> 100 µM (inactive)
same,GI50,SW-620,47 µM (inactive)
same,GI50,T47D,> 100 µM (inactive)
same,GI50,LOX IMVI,40.8 µM (inactive)
same,GI50,NCI-H460,> 100 µM (inactive)
same,GI50,IGROV-1,> 100 µM (inactive)
same,GI50,786-0,> 100 µM (inactive)
same,GI50,OVCAR-8,> 100 µM (inactive)
same,GI50,SK-MEL-5,> 100 µM (inactive)
same,GI50,A498,> 100 µM (inactive)
same,GI50,NCI/ADR-RES,> 100 µM (inactive)
same,GI50,SF-539,> 100 µM (inactive)
same,GI50,SNB-75,> 100 µM (inactive)
same,GI50,HCT-15,> 100 µM
same,GI50,TK-10,> 100 µM (inactive)
same,GI50,RXF 393,> 100 µM (inactive)
same,GI50,PC-3,> 100 µM (inactive)
same,GI50,ACHN,> 100 µM (inactive)
same,GI50,SF-268,> 100 µM (inactive)
same,GI50,DU-145,> 100 µM (inactive)
same,GI50,SNB-19,> 100 µM (inactive)
same,GI50,OVCAR-3,> 100 µM (inactive)
same,GI50,MDA-N,44.7 µM (inactive)
same,GI50,MOLT-4,89.5 µM (inactive)
same,GI50,Hs-578T,> 100 µM (inactive)
same,GI50,NCI-H226,> 100 µM (inactive)
same,GI50,KM12,> 100 µM (inactive)
same,GI50,Malme-3M,> 100 µM (inactive)
same,GI50,A549,> 100 µM (inactive)
same,GI50,SN12C,> 100 µM (inactive)
same,GI50,M14,> 100 µM (inactive)
same,GI50,UACC-257,> 100 µM (inactive)
same,GI50,SK-MEL-2,> 100 µM (inactive)
same,GI50,COLO 205,> 100 µM (inactive)
same,GI50,RPMI-8226,31 µM (inactive)
same,GI50,SK-OV-3,> 100 µM (inactive)
same,GI50,U-251,> 100 µM (inactive)
same,GI50,SF-295,> 100 µM (inactive)
same,GI50,OVCAR-5,> 100 µM (inactive)
same,GI50,HOP-92,> 100 µM (inactive)
same,GI50,HT-29,> 100 µM (inactive)
same,GI50,SK-MEL-28,> 100 µM (inactive)
same,GI50,UACC-62,34.4 µM (inactive)
same,GI50,MCF7,> 100 µM (inactive)
same,GI50,UO-31,> 100 µM (inactive)
same,GI50,NCI-H522,> 100 µM (inactive)
same,GI50,HOP-62,> 100 µM (inactive)
same,GI50,K562,92.3 µM (inactive)
same,GI50,CCRF-CEM,18.1 µM (inactive)
same,GI50,BT-549,> 100 µM (inactive)
same,GI50,EKVX,> 100 µM (inactive)
